Reference: patent US20250268854A1, “2-AMINO-5,5-DIMETHYLHEXANOIC ACID DERIVATIVES AS SORTILIN MODULATORS FOR USE IN THE TREATMENT OF DISEASE OF THE CENTRAL NERVOUS SYSTEM” (c/o Vesper Bio ApS, priority 2021, published 2025)
Structures can show the parent of a compound that is named as a salt.

Key:
[1] = Blood-brain-barrier permeability of study compounds in mice after PO administration; conditions: mouse; for concentration at 1 h: po, T = 1 hour; for blood brain barrier penetration: conclusion in words; for Kp uu at 1 h: brain and plasma (unbound concentrations), oral, Kpuu, ratio of unbound brain to unbound plasma concentration
Experimental: (§12) Separately, the fraction of compound bound to plasma protein or brain homogenate was measured to allow assessment of free fractions.
(§13) In practice, unbound fractions in plasma and brain tissue were assessed using rapid equilibrium dialysis in vitro. Separately a pharmacokinetic study was run in vivo whereby a dose of the compound of interest was given at T=0 hours and at subsequent timepoints (eg 0.5, 1 and 4 hours) plasma and separately brain samples were analysed for total concentration of the compound of interest. These total concentrations could then be adjusted with the unbound fraction to give the unbound concentrations in the plasma and brain. The unbound partition coefficient (Kpuu) was then determined as a ratio between the free compound concentrations in the compartment of interest, here the brain/CNS and the plasma.
(§14) The compound is administered to the animal in a suitable vehicle at T=0 hours. At one hour post administration plasma and separately brain are removed, prepared and analysed for total compound concentration.
(§15) Mouse brain samples were prepared for analysis by homogenization with Omni bead ruptor, using 4-fold volume of 150 mM phosphate buffered saline (PBS) (E.g. 400 uL PBS+100 mg brain). After homogenization, a 30 μL homogenate sample was mixed with 60 μL of internal standard solution (100 ng/ml of repaglinide and phenacetin in acetonitrile (ACN) containing 1% formic acid) and mixed. Samples were centrifuged for 20 minutes (4000 rpm, Thermo Scientific SL16) and 50 μl of supernatant, together with 100 μl of 50% acetonitrile was transferred on an analytical plate. Standard samples were prepared by spiking blank brain homogenate to obtain concentrations from 0.1 to 10 000 ng/ml in brain homogenate by using one volume of spiking solution and nine volumes of blank homogenate. Quality control (QC) samples were prepared for concentrations at 3, 30, 300 and 3000 ng/ml by using one volume of spiking solution and nine volumes of blank brain homogenate. The standards and QCs were then prepared for analysis similarly as the samples. Blank brain matrix was collected in-house from CD-1 mice.
(§16) The samples were prepared by mixing 30 μL of plasma sample with 60 μL of internal standard solution (100 ng/ml of repaglinide and phenacetin in ACN with 1% of formic acid) and mixed. Samples were centrifuged for 20 minutes (4000 rpm, Thermo Scientific SL16) and 50 μl of supernatant, together with 100 μl of 50% acetonitrile was transferred on analytical plate. 10 μl of diluted samples were transferred on analytical plate and further diluted with 190 μl of 50% acetonitrile. Standard samples were prepared by spiking blank plasma to obtain concentrations from 0.1 to 10 000 ng/ml in plasma by using one volume of spiking solution and nine volumes of blank plasma. Quality control (QC) samples were prepared for concentrations at 3, 30, 300 and 3000 ng/ml by using one volume of spiking solution and nine volumes of plasma. The standards and QCs were then prepared for analysis similarly as the samples. Blank plasma was collected in-house from CD-1 mice.
(§17) Instrumentation: Waters Acquity UPLC+Waters TQ-S triple quadrupole MS; Column: Waters Acquity HSS T3 (2.1×50 mm, 1.8 μm) column with pre-column filter; Gradient Elution; A=0.1% Formic acid, B=Acetonitrile

[2] = in vivo; conditions: mouse, Kpuu
Experimental: as §12, §13, §14, §15, §16, §17

[3] = Plasma protein binding by rapid equilibrium dialysis; type: in vitro ADME; conditions: 37° C.; for Mouse Plasma Unbound (Fu, %): CD1-mouse plasma, 5 μM, 4 hours; for fraction unbound at 4 h, 5 μM: pH 7.4, CD1-mouse plasma, read-out: Mouse Plasma Unbound (Fu, %)
Experimental: (§1) Rapid Equilibrium Dialysis The test compounds were incubated in CD1-mouse plasma and brain homogenate at 37° C. in RED device with inserts (8K MWCO, Thermo scientific) for 4 hours at 5 μM in triplicates. 350 μL of 150 mM phosphate buffered saline (PBS, pH 7.4) was used as the receiver side solutions. The samples were collected from both sides after 4 hours equilibration time and their matrices were made similar by diluting the donor side sample using blank PBS, and by diluting the receiver side sample using blank plasma/phosphate buffered saline. After the incubation, aliquots of donor side matrixes were diluted with an equal volume of the blank receiver side matrix and aliquots of receiver side matrixes were diluted with an equal volume of blank donor side matrix. All samples were protein precipitated by addition of a two-fold volume of acetonitrile containing 100 nM of repaglinide as an internal standard. After 10-minute centrifugation at 13 200 rpm, the sample supernatants were analysed with an LC-MS/MS, to obtain the unbound fraction of the test compound (Fub). The unbound fraction was calculated from the peak area ratios obtained for each matrix: […]
where CPBS and Cplasma are the analyte concentrations in PBS (receiver) and plasma (donor), respectively.
(§2) Recovery samples were prepared in each condition but without dialysis, and were used for evaluation of recovery from the dialysis experiment using following formula: […]
(§3) where VPBS is the volume on the receiver side (PBS) and Vplasma is the volume on donor side (plasma) of the dialysis device. Crecovery is the analyte concentration measured from the recovery sample.
(§4) Propranolol (1 μM) and fluoxetine (5 μM) were included in the experiment as a control compounds.

[4] = Brain homogenate binding by rapid equilibrium dialysis; type: in vitro ADME; conditions: 37° C.; for Mouse Brain Unbound (Fu, %): 5 μM, 4 hours, dilution factor 5; for fraction unbound at 4 h, 5 μM: CD1, pH 7.4, mouse brain homogenate, dilution factor 5, read-out: Mouse Brain Unbound (Fu, %)
Experimental: as §1, §2, §3, §4
The unbound fraction in brain (Fub, brain) was calculated from the measured value in brain homogenate (Fub, meas), taking into account the dilution factor used in preparing the brain homogenate:
where D=dilution factor (here 5).

[5] = molecular target: mouse Sortilin (Mus musculus (Mouse), UniProt Q6PHU5); assay: Creoptix (GCI) binding kinetics, mouse Sortilin; conditions: screened at 1 μM
Experimental: (§5) A protein, bound to a surface, is bathed in a solution containing potential ligands giving rise to binding kinetics to generate Kon and Koff rates, as well as a Kd.
(§6) All buffers described were filtered using a 0.2 μm filter (Product number: 10300461, Nalgene) and degassed for 15 minutes prior to use.
(§7) A flow cell temperature of 25 degrees Celsius was used throughout the experiment.
(§8) A 4PCH chip was conditioned across all flow cells using 0.2× concentration running buffer (running buffer composition: 1×HBS-N, pH 7.4, 3.4 mM EDTA, 1% DMSO) using pre-set conditioning wizard (WAVE control software) injecting: 0.1 M borate, 1 M NaCl (pH 9) followed by three start-up injections of 0.2× running buffer.
(§9) A buffer exchange was performed and 1× running buffer (1×HBS-N, pH 7.4, 3.4 mM EDTA, 1% DMSO) used during the immobilisation procedure:
(§10) An initial injection of EDC/NHS (mixed in 1:1 ratio) was performed across all 4-flow cells to activate the surface for amine coupling of ligands.
Recombinant Sortilin aliquots were thawed quickly by hand and centrifuged at 13,300 rpm for 10 minutes. […]
(§11) Data was evaluated using the RAPID kinetic analysis tool in the GCI WAVE_control software with data fitted using a standard 1:1 kinetic BioModel.

[6] = molecular target: h-Sortilin (Homo sapiens (Human), UniProt Q99523); assay: Neurotensin (NTS) scintillation proximity assay (SPA): displacement of [3H]-neurotensin binding; conditions: 150 nM 6his-Sortilin, 5 nM [3H]-Neurotensin; average of at least 2 determinations
Experimental: The exemplified compounds of the invention were tested in a Neurotensin (NTS) scintillation proximity assay (SPA). NTS, which is a 13 amino acid neuropeptide, is a sortilin ligand. The IC50 is a measure of the amount of the compound required to inhibit the binding of NTS to sortilin by 50%. […] Compound affinity was determined by measuring the displacement of [^3H]-neurotensin binding to h-Sortilin in SPA format. […] IC50 values were calculated by nonlinear regression using the sigmoid concentration-response (variable slope) using CDD Vault software. All values reported are average of at least 2 determinations.

[7] = molecular target: human Sortilin (Homo sapiens (Human), UniProt Q99523); assay: Creoptix (GCI) binding kinetics, human Sortilin; conditions: screened at 1 μM
Experimental: as §5, §6, §7, §8, §9, §10
Recombinant Sortilin aliquots were thawed quickly by hand and centrifuged at 13,300 rpm for 10 minutes. A 10 μg/ml protein solution was then made in pH 5.0 acetate and injected once for 20 minutes over flow-cells 2, 3 and 4 for human, human (flow cells 2 & 3), and mouse Sortilin respectively followed by a 60 second dissociation period.
A final 7-minute passivation injection of 50 mM tris was used across all flow cells.
A flow rate of 10 μl/min was used for all conditioning and immobilisation cycles.
Compounds were screened at 1 μM using the in-built ‘intermediate binders’ settings: 100 ul/min, 45 s baseline, 25 s association, 300 s dissociation, with blanks every 5th sample and a DMSO correction (1.5% DMSO at the start and end of the experiment as well as every 20 cycles. An acquisition rate of 10 Hz was used throughout the experiment.
Compounds were screened at a final assay concentration of 1 μM and a final DMSO concentration was 1%. To achieve this, compounds were diluted in DMSO from 10 mM stocks to 100 μM (100×final assay concentration) then diluted 1:100 in running buffer which contained no DMSO to establish a final assay concentration of compound of 1 μM and a final DMSO concentration of 1% [DMSO].
Compounds and DMSO were mixed by plate shaking at 1000 rpm for 60 seconds using a Bioshake instrument.
A flow rate of 100 μl/min was used throughout the experiment.
as §11

[8] = brain, Brain Tissue Concentration (ng/g) T = 1 hour
[9] = brain, Unbound Brain Concentration (ng/mL) T = 1 hour
[10] = plasma, Total Plasma Concentration (ng/ml) T = 1 hour
[11] = plasma, Unbound Plasma Concentration (ng/mL) T = 1 hour

Sequence of h-Sortilin (Q99523 78-831): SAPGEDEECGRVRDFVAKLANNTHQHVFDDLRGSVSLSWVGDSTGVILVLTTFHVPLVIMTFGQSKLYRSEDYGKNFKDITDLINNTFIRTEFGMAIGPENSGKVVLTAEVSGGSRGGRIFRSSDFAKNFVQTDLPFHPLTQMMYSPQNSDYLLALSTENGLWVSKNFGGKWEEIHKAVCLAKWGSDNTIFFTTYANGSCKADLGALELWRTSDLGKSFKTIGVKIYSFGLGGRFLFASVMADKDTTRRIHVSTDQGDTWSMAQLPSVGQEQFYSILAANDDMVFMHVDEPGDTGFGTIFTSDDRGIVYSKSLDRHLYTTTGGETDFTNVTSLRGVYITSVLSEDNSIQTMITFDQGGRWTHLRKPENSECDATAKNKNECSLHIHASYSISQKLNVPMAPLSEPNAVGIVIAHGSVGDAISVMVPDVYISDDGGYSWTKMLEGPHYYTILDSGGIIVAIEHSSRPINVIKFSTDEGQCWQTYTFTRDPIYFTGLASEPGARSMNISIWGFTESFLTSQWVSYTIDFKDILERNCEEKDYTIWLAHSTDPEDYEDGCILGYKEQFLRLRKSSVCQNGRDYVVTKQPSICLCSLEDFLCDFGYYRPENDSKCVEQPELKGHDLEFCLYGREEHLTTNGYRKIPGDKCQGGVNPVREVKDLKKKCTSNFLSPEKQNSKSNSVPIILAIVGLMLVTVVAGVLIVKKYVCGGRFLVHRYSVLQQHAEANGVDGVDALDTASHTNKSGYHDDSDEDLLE
Sequence of human Sortilin (Q99523 78-755): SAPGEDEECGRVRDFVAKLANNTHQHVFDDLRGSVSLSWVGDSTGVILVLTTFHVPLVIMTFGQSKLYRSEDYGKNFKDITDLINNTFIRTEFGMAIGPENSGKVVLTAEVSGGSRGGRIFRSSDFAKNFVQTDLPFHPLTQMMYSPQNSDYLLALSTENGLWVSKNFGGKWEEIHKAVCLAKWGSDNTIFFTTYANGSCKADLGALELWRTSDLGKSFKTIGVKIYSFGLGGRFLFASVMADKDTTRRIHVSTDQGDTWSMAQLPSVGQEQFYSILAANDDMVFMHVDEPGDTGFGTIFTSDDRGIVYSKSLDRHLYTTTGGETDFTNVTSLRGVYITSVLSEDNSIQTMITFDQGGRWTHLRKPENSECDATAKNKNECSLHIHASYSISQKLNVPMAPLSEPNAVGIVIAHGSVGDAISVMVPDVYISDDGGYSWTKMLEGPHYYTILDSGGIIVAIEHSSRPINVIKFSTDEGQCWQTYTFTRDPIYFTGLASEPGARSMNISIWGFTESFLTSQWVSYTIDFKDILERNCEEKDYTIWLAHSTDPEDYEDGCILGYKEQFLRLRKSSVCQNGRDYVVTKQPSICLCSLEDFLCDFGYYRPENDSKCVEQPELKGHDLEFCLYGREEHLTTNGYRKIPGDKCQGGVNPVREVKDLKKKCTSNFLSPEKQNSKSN
Sequence of mouse Sortilin (Q6PHU5 76-753): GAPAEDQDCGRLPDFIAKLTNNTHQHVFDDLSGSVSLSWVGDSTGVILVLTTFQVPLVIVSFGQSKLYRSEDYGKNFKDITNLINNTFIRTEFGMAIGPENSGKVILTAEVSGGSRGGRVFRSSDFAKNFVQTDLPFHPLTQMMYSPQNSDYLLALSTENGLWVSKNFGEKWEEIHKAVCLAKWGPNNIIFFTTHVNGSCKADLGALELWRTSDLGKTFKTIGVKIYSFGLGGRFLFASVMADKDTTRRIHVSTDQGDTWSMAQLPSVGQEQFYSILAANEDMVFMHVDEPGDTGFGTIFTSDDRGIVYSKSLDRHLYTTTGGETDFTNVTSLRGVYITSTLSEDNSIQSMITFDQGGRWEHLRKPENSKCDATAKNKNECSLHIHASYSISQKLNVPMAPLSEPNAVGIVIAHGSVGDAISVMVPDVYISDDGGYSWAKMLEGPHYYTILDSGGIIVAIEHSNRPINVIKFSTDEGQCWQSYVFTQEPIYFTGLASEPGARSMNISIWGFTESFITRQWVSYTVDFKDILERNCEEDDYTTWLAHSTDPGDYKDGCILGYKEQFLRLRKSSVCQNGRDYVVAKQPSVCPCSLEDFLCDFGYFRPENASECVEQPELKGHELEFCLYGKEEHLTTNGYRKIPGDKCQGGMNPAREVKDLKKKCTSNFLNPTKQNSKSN

## Cc1cccc(NC(=O)c2ccc(C(F)(F)F)cc2C(=O)O)n1 [Comparative Example 1, reference compound]
[1]; [8]
  concentration at 1 h: 0.9 ng/g
[1]; [9]
  concentration at 1 h: 0.2 ng/mL
[1]; [10]
  concentration at 1 h: 393 ng/mL
[1]; [11]
  concentration at 1 h: 27 ng/mL
[1]
  blood brain barrier penetration: did not show a blood brain barrier penetration
[2]
  Kp uu at 1 h: < 0.1

## COc1cccc(CN[C@@H](CCC(C)(C)C)C(=O)O)c1.Cl [Example 5, (2S)-2-{[(3-methoxyphenyl)methyl]amino}-5,5-dimethylhexanoic acid]
[3]
  Mouse Plasma Unbound (Fu, %): 3.3%
  fraction unbound at 4 h, 5 μM: 0.033
[4]
  Mouse Brain Unbound (Fu, %): 29.1%
  fraction unbound at 4 h, 5 μM: 0.291
[5]; HCl salt
  Kd: 1020 nM
[6]
  IC50: 560 nM
[1]
  Kp uu at 1 h: > 0.1
  blood brain barrier penetration: permeate the blood brain barrier
[1]; [8]
  concentration at 1 h: 48.5 ng/g
[1]; [9]
  concentration at 1 h: 14 ng/mL
[1]; [10]
  concentration at 1 h: 3560 ng/mL
[1]; [11]
  concentration at 1 h: 117 ng/mL
[7]; Free acid
  Kd: 1930 nM
[7]; Ms salt
  Kd: 423 nM
[7]; MsOH salt
  Kd: 396 nM

## Cn1ccc2c(CN[C@@H](CCC(C)(C)C)C(=O)O)cccc21 [Example 6, (S)-5,5-dimethyl-2-(((1-methyl-1H-indol-4-yl)methyl)amino)hexanoic acid hydrochloride]
[3]
  Mouse Plasma Unbound (Fu, %): 5.8%
  fraction unbound at 4 h, 5 μM: 0.058
[4]
  Mouse Brain Unbound (Fu, %): 22.9%
  fraction unbound at 4 h, 5 μM: 0.229
[6]
  IC50: 330 nM
[1]
  Kp uu at 1 h: > 0.1
  blood brain barrier penetration: permeate the blood brain barrier
[1]; [8]
  concentration at 1 h: 6.25 ng/g
[1]; [9]
  concentration at 1 h: 1.4 ng/mL
[1]; [10]
  concentration at 1 h: 138 ng/mL
[1]; [11]
  concentration at 1 h: 8 ng/mL

## CC(C)(C)CC[C@H](NCc1cnc2ccccc2c1)C(=O)O [Example 35, (2S)-5,5-dimethyl-2-{[(quinolin-3-yl)methyl]amino}hexanoic acid]
[5]; Free acid
  Kd: 1050 nM
[6]
  IC50: 650 nM
[7]; Free acid
  Kd: 895 nM

## COc1ccc([C@@H](C)N[C@@H](CCC(C)(C)C)C(=O)O)cc1C [Example 102]
[6]
  IC50: 540 nM
[7]; Free acid
  Kd: 407 nM

## CC(C)(C)CC[C@H](NCc1cnc2cccnc2c1)C(=O)O [Example 103, (2S)-5,5-dimethyl-2-{[(1,5-naphthyridin-3-yl)methyl]amino}hexanoic acid]
[6]
  IC50: 160 nM
[7]; Free acid
  Kd: 83.2 nM

## COc1ccc([C@@H](C)N[C@@H](CCC(C)(C)C)C(=O)O)cc1OC [Example 107, (2S)-2-{[(1R)-1-(3,4-dimethoxyphenyl)ethyl]amino}-5,5-dimethylhexanoic acid]
[6]
  IC50: 930 nM
[7]; Free acid
  Kd: 443 nM

## COc1ccc([C@H](N[C@@H](CCC(C)(C)C)C(=O)O)C(F)F)cc1OC [Example 112, (2S)-2-{[(1S)-1-(3,4-dimethoxyphenyl)-2,2-difluoroethyl]amino}-5,5-dimethylhexanoic acid]
[6]
  IC50: 280 nM
[7]; Free acid
  Kd: 183 nM

## COc1ccc([C@@H](N[C@@H](CCC(C)(C)C)C(=O)O)C(F)F)cc1OC [Example 113, (2S)-2-{[(1R)-1-(3,4-dimethoxyphenyl)-2,2-difluoroethyl]amino}-5,5-dimethylhexanoic acid]
[6]
  IC50: 320 nM
[7]; Free acid
  Kd: 625 nM

## COc1ccc([C@H](N[C@@H](CCC(C)(C)C)C(=O)O)C(F)(F)F)cc1OC [Example 114, (2S)-2-{[(1S)-1-(3,4-dimethoxyphenyl)-2,2,2-trifluoroethyl]amino}-5,5-dimethylhexanoic acid]
[6]
  IC50: 220 nM
[7]; Free acid
  Kd: 132 nM

## COc1ccc([C@@H](N[C@@H](CCC(C)(C)C)C(=O)O)C(F)(F)F)cc1OC [Example 115, (2S)-2-{[(1R)-1-(3,4-dimethoxyphenyl)-2,2,2-trifluoroethyl]amino}-5,5-dimethylhexanoic acid]
[6]
  IC50: 420 nM
[7]; Free acid
  Kd: 351 nM

## CC(C)(C)CC[C@H](NCc1ccc(Cl)c(Cl)c1)C(=O)O [Example 125, (2S)-2-{[(3,4-dichlorophenyl)methyl]amino}-5,5-dimethylhexanoic acid]
[6]
  IC50: 550 nM
[7]; Ms salt
  Kd: 522 nM

## Cc1ccc(CN[C@@H](CCC(C)(C)C)C(=O)O)cc1Cl [Example 129, (2S)-2-{[(3-chloro-4-methylphenyl)methyl]amino}-5,5-dimethylhexanoic acid]
[6]
  IC50: 390 nM
[7]; Ms salt
  Kd: 512 nM

## Cc1ccc(CN[C@@H](CCC(C)(C)C)C(=O)O)c2ccn(C)c12 [Example 131, (S)-2-(((1,7-dimethyl-1H-indol-4-yl)methyl)amino)-5,5-dimethylhexanoic acid, Mesylic acid]
[6]
  IC50: 380 nM
[7]; Free acid
  Kd: 97.6 nM

## Cc1ccc(CN[C@@H](CCC(C)(C)C)C(=O)O)cc1C [Example 137, (S)-2-((3,4-dimethylbenzyl)amino)-5,5-dimethylhexanoic acid, Mesylic acid]
[6]
  IC50: 740 nM
[7]; Free acid
  Kd: 208 nM

## COc1ccc(F)c(CN[C@@H](CCC(C)(C)C)C(=O)O)c1 [Example 140, (2S)-2-{[(2-fluoro-5-methoxyphenyl)methyl]amino}-5,5-dimethylhexanoic acid]
[6]
  IC50: 850 nM
[7]; Free acid
  Kd: 456 nM

## COc1cncc(CN[C@@H](CCC(C)(C)C)C(=O)O)c1 [Example 144, (2S)-2-{[(5-methoxypyridin-3-yl)methyl]amino}-5,5-dimethylhexanoic acid]
[6]
  IC50: 430 nM
[7]; Free acid
  Kd: 310 nM
